Values quoted from earlier work as cited in Sander's compilation of Henry's law constants (doi:10.1080/10643389609388492).

Assay: Henry solubility constant Hcp at 298.15 K (mol/(m3 Pa))
Settings: reference: Staudinger and Roberts (1996); cited value

For ClC=C(Cl)Cl [trichloroethene], the “Henry solubility constant Hcp” value is listed as 0.00099.

In the case of CC(Cl)(Cl)Cl [1,1,1-trichloroethane], the “Henry solubility constant Hcp” value is given as 0.00058.

For ClC(Br)Br [dibromochloromethane], the “Henry solubility constant Hcp” value is given as 0.0085.

For C=C(Cl)Cl [1,1-dichloroethene], the “Henry solubility constant Hcp” value is listed as 0.00034.

For ClCCl [dichloromethane], the “Henry solubility constant Hcp” value is given as 0.0036.

In the case of ClCC(Cl)CCl [1,2,3-trichloropropane], the “Henry solubility constant Hcp” value is listed as 0.034.

For ClC(Cl)C(Cl)Cl [1,1,2,2-tetrachloroethane], the “Henry solubility constant Hcp” value is given as 0.024.

In the case of Cc1cccc(C)c1 [1,3-dimethylbenzene], the “Henry solubility constant Hcp” value is given as 0.0013.

For CCCl [chloroethane], the “Henry solubility constant Hcp” value is listed as 0.00083.

For ClC(Cl)=C(Cl)Cl [tetrachloroethene], the “Henry solubility constant Hcp” value is listed as 0.00058.

In the case of BrC(Br)Br [tribromomethane], the “Henry solubility constant Hcp” value is given as 0.017.

In the case of CC(Cl)CCl (stereo not given) [1,2-dichloropropane], the “Henry solubility constant Hcp” value is given as 0.0034.

For ClC(Cl)(Cl)C(Cl)(Cl)Cl [hexachloroethane], the “Henry solubility constant Hcp” value is listed as 0.0025.

In the case of Cc1ccccc1C [1,2-dimethylbenzene], the “Henry solubility constant Hcp” value is listed as 0.0019.

For c1ccccc1 [benzene], the “Henry solubility constant Hcp” value is listed as 0.0016.

For ClC(Cl)Br [bromodichloromethane], the “Henry solubility constant Hcp” value is listed as 0.004.

For O=Cc1ccccc1 [benzaldehyde], the “Henry solubility constant Hcp” value is given as 0.39.

For CC(C)=O [propanone], the “Henry solubility constant Hcp” value is listed as 0.3.

For Cc1ccc(C)cc1 [1,4-dimethylbenzene], the “Henry solubility constant Hcp” value is listed as 0.0013.

In the case of Cc1ccccc1 [methylbenzene], the “Henry solubility constant Hcp” value is listed as 0.0015.

In the case of ClCC(Cl)Cl [1,1,2-trichloroethane], the “Henry solubility constant Hcp” value is listed as 0.011.

For ClC(Cl)(Cl)Cl [tetrachloromethane], the “Henry solubility constant Hcp” value is given as 0.00034.

For Clc1ccccc1 [chlorobenzene], the “Henry solubility constant Hcp” value is listed as 0.0027.

For CCc1ccccc1 [ethylbenzene], the “Henry solubility constant Hcp” value is given as 0.0012.

For C=CCl [chloroethene], the “Henry solubility constant Hcp” value is given as 0.00039.
